Assay results taken from ChEMBL document CHEMBL1201862, “PubChem BioAssay data set” (2004).
Active and inactive are the calls of the source.

Legend:
[1] = target: DNA dC->dU-editing enzyme APOBEC-3G (Homo sapiens, UniProt Q9HC16); experiment: inhibition of APOBEC3G ssDNA deamination – biochemical, fluorescence, single-stranded DNA substrate, SAR follow-up (AID 602136); type: functional; conditions: read-out: IC50_Mean
[2] = target: DNA dC->dU-editing enzyme APOBEC-3A (Homo sapiens, UniProt P31941); experiment: SAR analysis of small molecule inhibitors of APOBEC3A DNA Deaminase via a fluorescence-based single-stranded DNA deaminase assay.; type: functional; conditions: read-out: IC50_Mean
[3] = THP-1 cell cytotoxicity, dose response, cytotoxicity control, set 3 (AID 504852); type: functional; conditions: Mycobacterium tuberculosis
[4] = Vero cell cytotoxicity, dose response, cytotoxicity control for M. tuberculosis growth inhibitor project, Vero cells, purified and synthesized compounds, set 4 (AID 504854); type: functional; conditions: Mycobacterium tuberculosis
[5] = Trypanosoma cruzi growth suppression in host cells – NIH3T3 host cells, beta-gal luminescence, confirmation (AID 2044); type: functional, cell-based;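 note: intracellular parasites grown in NIH/3T3 mouse fibroblasts as host cells; luminescent beta-galactosidase reporter signal from transgenic T. cruzi replicating inside host cells; inhibitors lower the luminescence signal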
INS1 = experiment: INS-1E survival protection against cytokine death – cell-based, luminescence, retest, dose response (AID 449756); type: functional; conditions: Rattus norvegicus;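 note: cell death triggered by IL-1 beta plus TNF-alpha plus IFN-gamma mixture; protective hits raise ATP signal compared with cytokine alone wells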
[6] = NIH3T3 cell viability loss – ATP luminescence, mouse fibroblasts, counter-screen, dose response (AID 2010); type: functional, cell-based;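 note: cells exposed to compound for about 90 hours before reading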
[7] = target: Serine/threonine-protein phosphatase (Homo sapiens, UniProt Q9BPW0); experiment: Counterscreen for inhibitors of PP1: fluorescence-based biochemical high throughput dose response assay to identify inhibitors of Protein Phosphatase 5 (PP5). [Related pubchem assays: 2034 (Summary (PP5 inhibitors)), 1987 (PP5 inhibitors in singlate), 2235 (PP1 inhibitors in singlate)]
[8] = target: Photoreceptor-specific nuclear receptor (Homo sapiens, UniProt Q9Y5X4); type: functional, cell-based;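 note: CHO-S cells with Gal4-NCOR and VP16-NR2E3 two-hybrid luciferase reporter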
[9] = target: Serine/threonine-protein phosphatase PP1-alpha catalytic subunit (Homo sapiens, UniProt P62136); experiment: inhibition of protein phosphatase 1 activity – biochemical, fluorescence, dose response (AID 2403);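 note: phosphatase turnover of OMFP into fluorescent 3-O-methylfluorescein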
[10] = fluconazole-exposed Candida albicans growth modulators – fluorescence, retest, confirmation (AID 2467); type: functional, cell-based
[11] = target: Latent membrane protein 1 (Human herpesvirus 4 (strain B95-8), UniProt P03230); experiment: LMP1 TES1 pathway selectivity over dsRED control – imaging, HEK293T, dual-color eGFP/dsRED, cherry-picks, selectivity assay for LMP1 NF-kB inhibitor project, dose response (AID 588398); type: functional, cell-based
HEK293 = experiment: EBV LMP1 TES2 canonical NF-kB signalling blockers – cell-based, HEK293, luciferase, cherry-pick, dose response (AID 588343); type: functional; conditions: Homo sapiens
[12] = NIH-3T3 fibroblast cytotoxicity, dose response, cytotoxicity control, cell-based, fluorescence, Alamar Blue, secondary assay (AID 2327); type: functional;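 note: NIH-3T3 mouse fibroblasts cultured with fluconazole at 8 µg/mL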
[13] = target: T1, Orexin/Hypocretin receptor type 1 (Homo sapiens, UniProt O43613); experiment: Homogeneous Time Resolved Fluorescence (HTRF)-based cell-based high throughput dose response assay for antagonists of the orexin 1 receptor (OX1R; HCRTR1). [Related pubchem assays (depositor defined):AID434989, AID435008, AID463079, AID485270, AID492963, AID492964, AID492965, AID493232, AID504717, AID504718]; type: functional
[14] = (§1) Counterscreen for antagonists of the orexin 1 receptor (OX1R; HCRTR1): Fluorescence-based cell-based high throughput dose response assay to identify antagonists of the parental CHO cell line. [Related pubchem assays (depositor defined):AID434989, AID435008, AID463079, AID485270, AID492963, AID492964, AID492965, AID493232, AID504699, AID504701]; type: functional
[15] = target: T1, Orexin/Hypocretin receptor type 1; experiment: Fluorescence-based cell-based high throughput dose response assay for antagonists of the orexin 1 receptor (OX1R; HCRTR1). [Related pubchem assays (depositor defined):AID434989, AID435008, AID463079, AID485270, AID492963, AID492964, AID492965, AID493232, AID504717, AID504718]; type: functional
Orexin receptor type 2 [16] = target: T2, Orexin receptor type 2 (Homo sapiens, UniProt O43614); experiment: Counterscreen assay for antagonists of the orexin 1 receptor (OX1R; HCRTR1): Fluorescence-based cell-based dose response assay for antagonists of the orexin 2 receptor (OX2R; HCRTR2), run by assay provider.; type: functional
Orexin receptor type 2 [17] = target: T2, Orexin receptor type 2; experiment: Counterscreen assay for antagonists of the orexin 1 receptor (OX1R; HCRTR1): Homogeneous Time Resolved Fluorescence (HTRF)-based cell-based dose response assay for antagonists of the orexin 2 receptor (OX2R; HCRTR2), run by assay provider.; type: functional
CHO-K1 = experiment: as §1, with “Homogeneous time resolved fluorescence (HTRF)-based” for “Fluorescence-based”, “cell-based” for “cell-based high throughput”, “CHO-K1” for “CHO”; type: functional; conditions: Cricetulus griseus;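 note: potency for inhibition of ATP-stimulated IP1 production as antagonists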

T2 sequence (O43614 whole entry): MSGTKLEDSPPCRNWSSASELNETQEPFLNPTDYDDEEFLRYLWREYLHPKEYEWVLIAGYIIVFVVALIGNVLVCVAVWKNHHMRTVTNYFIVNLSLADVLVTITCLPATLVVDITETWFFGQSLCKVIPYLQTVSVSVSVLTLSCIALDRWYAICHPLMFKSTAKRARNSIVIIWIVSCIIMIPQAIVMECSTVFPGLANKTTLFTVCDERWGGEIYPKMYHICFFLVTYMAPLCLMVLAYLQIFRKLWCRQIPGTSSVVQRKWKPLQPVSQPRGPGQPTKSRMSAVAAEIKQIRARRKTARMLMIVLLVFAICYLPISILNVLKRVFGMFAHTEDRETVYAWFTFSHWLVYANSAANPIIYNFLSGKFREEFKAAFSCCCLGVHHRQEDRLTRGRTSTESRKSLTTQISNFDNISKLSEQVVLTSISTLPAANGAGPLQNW
T1 sequence (O43613 whole entry): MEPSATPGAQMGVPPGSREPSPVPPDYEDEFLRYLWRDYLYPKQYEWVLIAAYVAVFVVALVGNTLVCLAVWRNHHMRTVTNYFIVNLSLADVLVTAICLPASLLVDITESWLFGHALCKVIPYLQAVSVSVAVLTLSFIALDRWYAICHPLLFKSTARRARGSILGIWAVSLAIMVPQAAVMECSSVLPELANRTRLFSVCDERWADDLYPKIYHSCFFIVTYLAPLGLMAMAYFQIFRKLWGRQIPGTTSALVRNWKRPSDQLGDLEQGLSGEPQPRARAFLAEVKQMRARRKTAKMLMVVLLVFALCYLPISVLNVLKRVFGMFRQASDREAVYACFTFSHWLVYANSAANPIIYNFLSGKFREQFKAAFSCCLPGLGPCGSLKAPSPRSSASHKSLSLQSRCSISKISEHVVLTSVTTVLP
Chain of Latent membrane protein 1 (P03230 whole entry): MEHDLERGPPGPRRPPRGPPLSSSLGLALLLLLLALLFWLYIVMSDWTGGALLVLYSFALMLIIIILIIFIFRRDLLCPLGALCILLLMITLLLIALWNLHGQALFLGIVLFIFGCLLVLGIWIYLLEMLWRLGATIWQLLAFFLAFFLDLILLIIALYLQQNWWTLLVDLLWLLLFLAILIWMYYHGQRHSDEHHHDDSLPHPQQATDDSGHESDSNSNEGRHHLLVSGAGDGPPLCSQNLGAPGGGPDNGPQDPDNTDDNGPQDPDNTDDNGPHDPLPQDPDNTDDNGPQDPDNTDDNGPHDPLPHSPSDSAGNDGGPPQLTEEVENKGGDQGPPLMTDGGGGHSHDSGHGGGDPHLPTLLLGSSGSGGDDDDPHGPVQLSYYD
Chain of Serine/threonine-protein phosphatase PP1-alpha catalytic subunit (P62136 whole entry): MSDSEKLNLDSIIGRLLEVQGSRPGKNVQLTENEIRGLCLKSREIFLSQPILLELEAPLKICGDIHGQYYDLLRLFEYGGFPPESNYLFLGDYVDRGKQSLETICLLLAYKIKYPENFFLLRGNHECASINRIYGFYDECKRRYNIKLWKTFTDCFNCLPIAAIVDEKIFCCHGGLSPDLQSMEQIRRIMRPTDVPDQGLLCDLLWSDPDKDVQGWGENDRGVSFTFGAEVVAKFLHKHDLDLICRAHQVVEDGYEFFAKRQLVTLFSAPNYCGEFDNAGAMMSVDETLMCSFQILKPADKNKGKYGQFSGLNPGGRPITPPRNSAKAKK
Chain of Photoreceptor-specific nuclear receptor (Q9Y5X4 whole entry, the tested form may be a part): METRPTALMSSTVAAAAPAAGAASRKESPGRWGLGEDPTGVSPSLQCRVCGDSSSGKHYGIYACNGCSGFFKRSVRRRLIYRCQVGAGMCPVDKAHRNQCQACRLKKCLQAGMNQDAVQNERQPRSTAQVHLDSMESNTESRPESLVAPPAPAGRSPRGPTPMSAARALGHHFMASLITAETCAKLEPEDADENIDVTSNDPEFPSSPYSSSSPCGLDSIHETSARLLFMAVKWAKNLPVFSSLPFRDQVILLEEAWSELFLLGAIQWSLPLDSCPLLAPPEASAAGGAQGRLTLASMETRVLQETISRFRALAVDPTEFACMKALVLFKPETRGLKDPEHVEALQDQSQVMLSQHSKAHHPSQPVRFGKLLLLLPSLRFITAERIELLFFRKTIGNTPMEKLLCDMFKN
Chain of DNA dC->dU-editing enzyme APOBEC-3A (P31941 whole entry): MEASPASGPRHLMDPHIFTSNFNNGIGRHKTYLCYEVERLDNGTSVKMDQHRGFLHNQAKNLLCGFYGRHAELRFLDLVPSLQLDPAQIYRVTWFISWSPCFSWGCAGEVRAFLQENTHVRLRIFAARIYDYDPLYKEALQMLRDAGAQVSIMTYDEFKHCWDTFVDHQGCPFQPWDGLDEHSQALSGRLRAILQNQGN
Chain of DNA dC->dU-editing enzyme APOBEC-3G (Q9HC16 whole entry): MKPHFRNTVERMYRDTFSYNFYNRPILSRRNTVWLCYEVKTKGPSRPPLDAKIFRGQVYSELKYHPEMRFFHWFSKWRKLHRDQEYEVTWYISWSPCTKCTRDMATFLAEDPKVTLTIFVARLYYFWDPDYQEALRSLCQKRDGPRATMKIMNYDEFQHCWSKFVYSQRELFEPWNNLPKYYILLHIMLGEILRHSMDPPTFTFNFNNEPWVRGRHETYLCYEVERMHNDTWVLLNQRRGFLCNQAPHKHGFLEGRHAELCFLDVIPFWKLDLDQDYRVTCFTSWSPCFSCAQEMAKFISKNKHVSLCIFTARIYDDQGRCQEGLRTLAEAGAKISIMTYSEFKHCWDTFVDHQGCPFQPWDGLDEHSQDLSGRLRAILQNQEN
Chain of Serine/threonine-protein phosphatase (Q9BPW0 whole entry, the tested form may be a part): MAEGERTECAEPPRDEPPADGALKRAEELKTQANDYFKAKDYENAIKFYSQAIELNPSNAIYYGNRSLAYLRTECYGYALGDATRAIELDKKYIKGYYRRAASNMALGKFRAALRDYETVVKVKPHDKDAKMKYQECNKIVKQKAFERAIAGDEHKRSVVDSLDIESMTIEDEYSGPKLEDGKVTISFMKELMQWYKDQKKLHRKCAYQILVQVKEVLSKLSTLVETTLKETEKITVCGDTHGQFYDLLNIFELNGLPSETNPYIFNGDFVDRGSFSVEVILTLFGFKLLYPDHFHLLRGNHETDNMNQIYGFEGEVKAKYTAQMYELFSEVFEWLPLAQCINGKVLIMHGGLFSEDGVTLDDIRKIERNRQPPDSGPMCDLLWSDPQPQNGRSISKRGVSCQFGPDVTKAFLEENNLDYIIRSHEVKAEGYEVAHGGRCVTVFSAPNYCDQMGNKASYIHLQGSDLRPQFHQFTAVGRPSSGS

In the case of CCOC(=O)CC(c1ccc(N)cc1)n1c(C)ccc1C (stereo not given), the IC50 [1] is reported as > 99 µM (inactive) and the IC50 [2] is reported as > 99 µM (inactive).

For CC1CCN(C(=O)CSc2nc(O)c3ccccc3n2)CC1, the CC50 [3] was > 100 µM (active) and the CC50 [4] was > 100 µM (active).

In the case of COc1cnc(-c2ccccn2)nc1Sc1ccccc1Cl, the EC50 [5] is reported as 2.36 µM (active), the AC50 (INS1) is reported as 7.29 µM (active) and the EC50 [6] is reported as > 60 µM (not active). For the same molecule, the IC50 [7] was 59.1 µM (not active), the IC50 [8] was 4.25 µM (active) and the IC50 [9] was 7.8 µM (active). For the same molecule, the EC50 [10] was > 38 µM (not active), the AC50 [11] was 15.4 µM (active) and the AC50 (HEK293) was 112 µM (active). For the same molecule, the EC50 [12] was > 150 µM (inconclusive).

For Cc1cc(Cl)ccc1OCCCC(=O)NCCN1C(=O)S/C(=C\c2cccnc2)C1=O, the IC50 [13] was 0.264 µM (active), the IC50 [14] was 21.1 µM (inactive) and the IC50 [15] was 1.13 µM (active). For the same molecule, the IC50 (Orexin receptor type 2 [16]) was 17.5 µM (inactive), the IC50 (Orexin receptor type 2 [17]) was > 50 µM (inactive) and the IC50 (CHO-K1) was > 66.2 µM (inactive).
